According to patent US5179217A, “Method of preparing photochemotherapic alkylangelicin compounds” (priority 1982, dated 1993):
Values joined by “and” are separate entries in the source; they are usually repeats but may differ in a detail not shown here. Equal entries are not always repeated. Where two headings read alike, the source gives them in different places.

What was measured:
epidermal DNA synthesis [1] = assay: Inhibition of epidermal DNA synthesis in the mouse in vivo after oral administration and UV-A irradiation; settings: light or radiation study, read-out: % inhibition of epidermal DNA synthesis
Description: The strong activity of the 6-alkylangelicins according to the invention in inhibiting the epidermal DNA synthesis of mice after oral administration (see Table VI) allows to consider these compounds effective also by oral administration in humans and UV-A irradiation.
Inhibition of epidermal DNA synthesis
in the mouse "in vivo" after oral
administration of the compound (250 mg/kg)
and UV-A irradiation (9 J/cm^2) (a).
(§1) (a) Determined according to Bordin et al., Il Farmaco, Ed.Sc., 36, 506,

[2] = tested on: Ehrlich ascites tumor cells; assay: Inhibition of DNA synthesis in Ehrlich ascites tumor cells; format: cell-based; settings: relative to angelicin = 100
From the text: (§2) The 6-alkylangelicins show a strong antiproliferative activity in Ehrlich ascites tumor cells (Table II) and on the skin of mice in terms of DNA synthesis inhibition (Table III). These compounds are practically unable to induce skin phototoxicity on albino guinea-pig skin (Table II).
as §1

epidermal DNA synthesis [3] = assay: Inhibition of epidermal DNA synthesis in the mouse in vivo after topical application and UV-A irradiation; settings: topical 50 μg/cm^2, UV-A 9 J/cm^2, ± S.E.
Description: Inhibition of epidermal DNA synthesis in the mouse "in vivo"
after topical application (50 μg/cm^2) of the compound and

[4] = Acute toxicity (LD50) in mice; settings: mouse, in vivo
DNA [5] = assay: Binding parameters of the complexes between 6-alkylangelicins and DNA (in the dark); parameters: K values: unit not given here; settings: for -n (number of nucleotides occluded by one bound molecule) / l/-n (frequency of binding sites, ligands bound per nucleotide): according to Mc Ghee and Von Hippel; for K values: complex with DNA
From the text: (§3) The 6-alkylangelicins show a strong affinity with DNA in the dark, thus forming molecular intercalated complexes; moreover the 6-methylangelicins complexed to DNA by irradiation bind very strongly to the macromolecule, inducing only monofunctional lesions (Table I).
(§4) Binding parameters of the complexes between 6-alkylangelicins and DNA
^a According to Mc Ghee and Von Hippel, (J.Mol. Biol., 86, 469, 1974)
-n is defined here as the number of nucleotides occluded by one bound
molecule of angelicin derivative.
^b l/-n defines, according to Mc Ghee and Von Hippel, the frequency o
binding sites; in other words, the number of ligands bound per nucleotide
and can be considered analogous to the "-n" value obtained by the classic
Scratchard method (Ann. N.Y. Acad. Sci., 51, 660, 1949).

DNA [6] = assay: Rate constant of photoreaction with DNA; format: biochemical; settings: irradiation
From the text: as §3, §4
and rate constant of their photoreactions with the macromolecule.

albino guinea-pig skin = assay: Skin erythemogenic activity / skin phototoxicity on albino guinea-pig skin; settings: in vivo
From the text: as §2, §1

psoriatic lesions = settings: for % clearance: topical 5 μg/cm^2 + UV-A (maximal dose 4-10 J/cm^2), 9-15 treatments; for dark pigmentation of human skin: treated area, patients
Description: In the treated patients various areas 4×4 cm of the affected skin were used:
a) in the first area an ethanolic solution (0.1% W/V) of the compound under investigation, was applied until a concentration of 5 μg/cm^2 was reached and left to evaporate by the heat of the body (or by hot air stream).
c) a third area was treated in the same way as area a), but was not irradiated with UV-A;
d) a fourth area was irradiated as in a) with the same dose of UV-A light in the absence of any compound.

E. coli WP2-uvr A = format: cell-based
Description: Mutagenic activity of 6-alkylangelicins on E. coli
WP2-uvr A by irradiation with UV-A (a).
(a) The test was performed at the furocoumarin concentration of 5 μg/m
according to Venturini et al., Chem. Biol. Interactions, 30, 203, 1980.

mice = assay: Acute toxicity (LD50) in mice; settings: mice, per os; 6,4'-dimethylangelicin in methylcellulose suspension
DNA [7] = settings: reference compound; data from Dall'Acqua et al. 1979; cited from earlier work
DNA [8] = settings: reference compound; data from Dall'Acqua et al. 1979; cited from earlier work; remark: listed apart in the source
[9] = mouse in vivo, oral 250 mg/kg, UV-A 9 J/cm^2, ± S.E.
[10] = UV-A irradiation time 10 seconds
[11] = UV-A irradiation time 20 seconds
[12] = UV-A irradiation time 30 seconds
[13] = UV-A irradiation time 60 seconds

Compound | inhibition at 250 mg/kg (epidermal DNA synthesis [1]; [9]) | Relative activity (inhibition of DNA synthesis in Ehrlich ascites tumor cells) [2] | % inhibition of epidermal DNA synthesis (epidermal DNA synthesis [3]) | -n (number of nucleotides occluded by one bound molecule) (DNA [5]) | l/-n (frequency of binding sites, ligands bound per nucleotide) (DNA [5]) | K values (DNA [5]) | rate constant of photoreaction with DNA (DNA [6]) | skin erythemogenic activity (albino guinea-pig skin) | no of mutants per 10^6 survivors (E. coli WP2-uvr A; [10]) | no of mutants per 10^6 survivors (E. coli WP2-uvr A; [11]) | no of mutants per 10^6 survivors (E. coli WP2-uvr A; [12]) | no of mutants per 10^6 survivors (E. coli WP2-uvr A; [13]) | also measured
Cc1cc2ccc(=O)oc2c2c(C)coc12 [6,4'-dimethylangelicin] | 49.2 ± 8% | 1096 | 36.56 ± 3.9% | 16.39 | 0.061 ± 0.003 | 6,300 ± 541 | 9.90 min^-1 × 10^2 | - | 0.96 mutants per 10^6 survivors | 1.76 mutants per 10^6 survivors | 2.63 mutants per 10^6 survivors |  | LD50 ([4]; ip): 750 mg/kg; LD50 ([4]; po): > 2000 mg/kg; skin phototoxicity on guinea-pig skin (albino guinea-pig skin): absence of skin phototoxicity on guinea-pig skin; pigmental capacity (psoriatic lesions; single psoriatic patients, topical 5 μg/cm^2 + UV-A): +; % clearance (psoriatic lesions; single psoriatic patients, listed as 6,4'-DMA): 100% and 90%; dark pigmentation of human skin (psoriatic lesions): evident dark pigmentation in the treated area, less pronounced than that induced by 8-MOP; genotoxicity, mutagenic activity (E. coli WP2-uvr A): low genotoxicity
Cc1cc(=O)oc2c1cc(C)c1occ(C)c12 [6,4,4'-trimethylangelicin] | 67.7 ± 8.2% | 41666 |  | 10.99 | 0.091 ± 0.0045 | 10,100 ± 1190 | 13.30 min^-1 × 10^2 | - | 0.84 mutants per 10^6 survivors | 1.18 mutants per 10^6 survivors | 1.24 mutants per 10^6 survivors | 1.98 mutants per 10^6 survivors | skin phototoxicity on guinea-pig skin (albino guinea-pig skin): absence of skin phototoxicity on guinea-pig skin; % clearance (psoriatic lesions; single psoriatic patients, listed as 6,4,4'-TMA): 100% and 95% and 90%; dark pigmentation of human skin (psoriatic lesions): appears more active; genotoxicity, mutagenic activity (E. coli WP2-uvr A): low genotoxicity
Cc1cc2c(o1)c(C)cc1c(C)cc(=O)oc12 [6,4,5'-trimethylangelicin] | 36.8 ± 8.5% | 646 |  | 22.22 | 0.045 ± 0.002 | 3,310 ± 281 | 7.02 min^-1 × 10^2 | - | 0.62 mutants per 10^6 survivors | 0.91 mutants per 10^6 survivors | 1.23 mutants per 10^6 survivors | 1.93 mutants per 10^6 survivors | 
Cc1cc(=O)oc2c1cc(C)c1occc12 [6,4-dimethylangelicin] | 58.4 ± 13% | 625 | 47.05 ± 4.3% | 15.87 | 0.063 ± 0.003 | 2,990 ± 232 | 5.23 min^-1 × 10^2 | - | 0.24 mutants per 10^6 survivors | 0.7 mutants per 10^6 survivors | 0.99 mutants per 10^6 survivors | 1.83 mutants per 10^6 survivors | 
Cc1cc2c(o1)c(C)cc1ccc(=O)oc12 [6,5'-dimethylangelicin] | 22.5 ± 12% | 210 |  | 12.82 | 0.078 ± 0.004 | 1,975 ± 136 | 3.00 min^-1 × 10^2 | - |  |  |  |  | 
Cc1cc2c(o1)c(C)c(C)c1ccc(=O)oc12 [6,5,5'-trimethylangelicin] | 60.6 ± 14.1% |  | 36.01 ± 11.7% | 14.29 | 0.070 ± 0.0035 | 3,730 ± 339 | 2.30 min^-1 × 10^2 |  |  |  |  |  | 
Cc1c(C)c2occc2c2oc(=O)ccc12 [6,5-dimethylangelicin] | 50.1 ± 19% |  | 52.83 ± 2.3% |  |  |  |  |  |  |  |  |  | 
Cc1cc2ccc(=O)oc2c2ccoc12 [6-methylangelicin] | 19.6 ± 9.2% | 95 | 29.25 ± 13.3% | 20.83 | 0.048 ± 0.002 | 925 ± 64 | 3.60 min^-1 × 10^2 | - |  |  |  |  | 
COc1c2occc2cc2ccc(=O)oc12 [8-MOP, 8-methoxypsoralen, reference compound] | 39.1 ± 3.7% |  | 61.0 ± 1.6% |  |  |  |  | ++ | 0.4 mutants per 10^6 survivors | 1.15 mutants per 10^6 survivors | 1.5 mutants per 10^6 survivors | 3.1 mutants per 10^6 survivors | LD50 ([4]; ip): 300 mg/kg; LD50 (mice): 0.75 g/kg; induction of skin erythema in humans (psoriatic lesions; human, in vivo): severe phototoxic response; no of mutants per 10^6 survivors (E. coli WP2-uvr A; UV-A irradiation time 90 seconds): 7.0 mutants per 10^6 survivors; rate constant of photoreaction with DNA (DNA [7]): 3.10 min^-1 × 10^2; -n (number of nucleotides occluded by one bound molecule) (DNA [8]): 7.81; K values (DNA [8]): 736; l/-n (frequency of binding sites, ligands bound per nucleotide) (DNA [8]): 0.128
O=c1ccc2ccc3occc3c2o1 [angelicin] |  |  | 17.5 ± 2.5% | 15.87 | 0.063 ± 0.003 | 560 | 1.10 min^-1 × 10^2 |  |  |  |  |  | inhibition at 250 mg/kg (epidermal DNA synthesis [1]; Mus musculus, po): 28 ± 2%
